Broadly, the AUC(0-inf) is total exposure, with the tail of the curve extrapolated. A lower AUC(0-inf) goes with less exposure.

Data set [1] is described as follows: Ratio of drug level in lung to efferent fluid in Wistar rat at 500 ug, administered through systemic route under respiratory mode of 30 respirations per minute, 4 ml/kg tidal volume. The note with it: in vivo, other. Format: ADME.
Data set [2] can be described thus: Ratio of drug level in lung to efferent fluid in Wistar rat at 500 ug, administered through pulmonary route under respiratory mode of 60 respirations per minute, 2 ml/kg tidal volume. The format is ADME. To be noted: in vivo, inhaled_or_intranasal.
Data set [3] in a line: Ratio of drug level in bronchoalveolar fluid to lung in Wistar rat at 500 ug, administered through pulmonary route under respiratory mode of 60 respirations per minute, 2 ml/kg tidal volume. To be noted: in vivo, other. Format: ADME.
A short description of data set [4]: AUC (0 to infinity) in Wistar rat lung at 500 ug, administered through systemic route under respiratory mode of 60 respirations per minute, 2 ml/kg tidal volume. The format is ADME. Details: dose 500 ug, time infinity.
Data set [5] can be described thus: Drug level in Wistar rat bronchoalveolar fluid at 500 ug, administered through systemic route. The format is ADME, tissue-based, Lung. To be noted: in vivo.
Data set [6] deals with Lung. Kind of data set: Drug level in Wistar rat lung at 500 ug, administered through systemic route. Format: ADME, tissue-based. The note with it: in vivo.
A short description of data set [7]: Ratio of drug level in bronchoalveolar fluid to lung in Wistar rat at 500 ug, administered through pulmonary route under respiratory mode of 30 respirations per minute, 4 ml/kg tidal volume. Format: ADME. The note with it: in vivo, inhaled_or_intranasal.
For data set [8], the system named is Lung. Kind of data set: Mean transit time in Wistar rat lung at 500 ug, administered through systemic route under respiratory mode of 60 respirations per minute, 2 ml/kg tidal volume. The note with it: in vivo, other. The format is ADME, tissue-based.
The subject of data set [9] is Lung. Kind of data set: Mean transit time in Wistar rat lung at 500 ug, administered through systemic route under respiratory mode of 30 respirations per minute, 4 ml/kg tidal volume. The format is ADME, tissue-based. To be noted: in vivo, other.
A short description of data set [10]: Ratio of drug level in lung to efferent fluid in Wistar rat at 500 ug, administered through systemic route under respiratory mode of 60 respirations per minute, 2 ml/kg tidal volume. Format: ADME. To be noted: in vivo, other.
A short description of data set [11]: Ratio of drug level in bronchoalveolar fluid to efferent fluid in Wistar rat at 500 ug, administered through pulmonary route under respiratory mode of 60 respirations per minute, 2 ml/kg tidal volume. The format is ADME. The note with it: in vivo, inhaled_or_intranasal.
The nature of data set [12]: Ratio of drug level in bronchoalveolar fluid to efferent fluid in Wistar rat at 500 ug, administered through pulmonary route under respiratory mode of 30 respirations per minute, 4 ml/kg tidal volume. Format: ADME. To be noted: in vivo, inhaled_or_intranasal.
Data set [13] is described as follows: AUC (0 to infinity) in Wistar rat lung at 500 ug, administered through systemic route under respiratory mode of 30 respirations per minute, 4 ml/kg tidal volume. The format is ADME. Details: dose 500 ug, time infinity.
A short description of data set [14]: Ratio of drug level in lung to efferent fluid in Wistar rat at 500 ug, administered through pulmonary route under respiratory mode of 30 respirations per minute, 4 ml/kg tidal volume. To be noted: in vivo, inhaled_or_intranasal. Format: ADME.

In the case of `CN[C@H](CC(C)C)C(=O)N[C@H]1C(=O)N[C@@H](CC(N)=O)C(=O)N[C@H]2C(=O)N[C@H]3C(=O)N[C@H](C(=O)N[C@H](C(=O)O)c4cc(O)cc(O)c4-c4cc3ccc4O)[C@H](O)c3ccc(c(Cl)c3)Oc3cc2cc(c3O[C@@H]2O[C@H](CO)[C@@H](O)[C@H](O)[C@H]2O[C@H]2C[C@](C)(N)[C@H](O)[C@H](C)O2)Oc2ccc(cc2Cl)[C@H]1O` [VANCOMYCIN], the Ratio in data set [1] is 0.5; in data set [2], > 9.44; in data set [3], 4.69; in data set [7] it was 7.1; in data set [10] it was 0.49; in data set [11] it was > 17.89. Besides, the figures for the Ratio in [12] and in data set [14] were 17.89 and 9.44, respectively. Also, the AUC(0-inf) was 1830 ng·h/mL in data set [4] and 2140 ng·h/mL in data set [13]. Also, the Drug uptake was 0.1 µg/g in [5] and 0.11 µg/g in [6]. For the same compound, the results for the MTT in data set [8] and in [9] were 0.47 min and 0.78 min, respectively.

For the origin of these results see ChEMBL document CHEMBL1153839, “Pulmonary versus systemic delivery of antibiotics: comparison of vancomycin dispositions in the isolated rat lung” (Antimicrob Agents Chemother, 2007).
